Data from patent US5432018A, “Peptide library and screening systems” (Affymax Technologies N.V., priority 1991, dated 1995).

These substances were tested on 3E7 Fab (assay: Dissociation of [125I]Fab from fusion phage clones). Conditions: [125I]Fab dissociating from the phage clone bearing the peptide; 4° C; excess free YGGFL added.
Assay type: binding, mouse
Design: key to Dissociation t1/2 (minutes): **: indicates that initial binding was not detected
Procedure: An assay employing the anti-phage antisera was developed to determine the rate of dissociation of [^125 I]Fab from individual phage isolates. Individual fusion phase isolates were amplified in a 5 ml liquid culture of E. coli K91 cells and phage particles were isolated and quantitated as described above. In 1 ml microtiter minitubes, 25 μl of TBS containing approximately 2×10^9 infectious phage particles were incubated with […] of TBS/0.1% BSA containing 40,000 cpm of [^125 I]Fab for 10 minutes. Anti-phage antisera (25 μl of 1:1000 dilution in PBS/0.1%BSA) and staph A particles coated with goat anti-mouse IgG (25 μl of Tachisorb diluted eight-fold in TBS/0.1% BSA) were then added. Dissociation was initiated after 2 hours further incubation at 4° C. […] Filter bound radioactivity was determined by gamma counting. […] The time corresponding to a 50% reduction of initially bound [^125 I]Fab was determined by linear regression of a semi-logarithmic plot of amount bound vs. time.
In the case of “YGGLVR: hexapeptide isolated with 50 pM Fab”, the “Dissociation t1/2” value is reported as 0.50 min.
For “YGRFFH: hexapeptide isolated with 50 pM Fab”, the “Dissociation t1/2 (minutes)” value was “**”.
In the case of “YGSFSL: hexapeptide isolated with 50 pM Fab”, the “Dissociation t1/2” value is reported as 0.43 min.
“YGGFSP: hexapeptide isolated with 50 pM Fab” was tested, and the “Dissociation t1/2 (minutes)” value was “**”.
“YGFWSN: hexapeptide isolated with 50 pM Fab” was tested, and the “Dissociation t1/2” value was 7.4 min.
For “YGYWSL: hexapeptide isolated with 50 pM Fab”, the “Dissociation t1/2” value was 15.6 min.
With “YGGLRH: hexapeptide isolated with 50 pM Fab” the “Dissociation t1/2 (minutes)” value was “**”.
In the case of “YGSFMA: hexapeptide isolated with 50 pM Fab”, the “Dissociation t1/2 (minutes)” value is reported as “**”.
“YGAFGG: hexapeptide isolated with 50 pM Fab” was tested, and the “Dissociation t1/2” value was 5.0 min.
With “YGGLSM: hexapeptide isolated with 50 pM Fab” the “Dissociation t1/2” value was 0.96 min.
With “YGAFFQ: hexapeptide isolated with 50 pM Fab” the “Dissociation t1/2” value was 13.4 min.
For “YGVFSR: hexapeptide isolated with 50 pM Fab”, the “Dissociation t1/2” value was 2.8 min.
“YGGFLT: hexapeptide isolated with 50 pM Fab” was tested, and the “Dissociation t1/2” value was 17.9 min.
